One assay relates to circulating LH / puberty. The conditions noted are these: cited from earlier work. How it is done: The development of kisspeptin antagonists contributed to an improved understanding of the role of kisspeptin in the reproductive system. Roseweir et al. developed several KP10 analogues and tested their effect on inositol phosphate (IP) release in Chinese hamster ovarian (CHO) cells stably expressing the human GPR54. […] The kisspeptin antagonists were administered intravenously in a dose of 50 μg/kg/h, and had no effect on either the basal plasma LH concentration during the continuous administration or on the KP10-induced LH response. These findings are in line with a previous study in female dogs. […] Adult male rats received an intrape ...

Assay [1] relates to plasma LH concentration. The experiment in a line: Plasma LH in anestrous Beagle bitches during antagonist infusion and after cKP10 bolus. Format: in vivo, dog. The conditions noted are these: n = 6. The source says:
Thirteen adult anestrous Beagle bitches were used for this study. Six dogs with a median age of 89 months (range 43–122 months) were used as control group, receiving cKP10 without an antagonist. Eight dogs with a median age of 52 months (range 31–116 months) were used for the antagonist experiments. One dog was first used in the control group and 12 months later for the antagonist experiments. Of the eight dogs used for the antagonist experiments, four received p271, p354, and p356. In two of the eight dogs both p354 and p356 were tested, while in the remaining two dogs only p271 was tested, in order to test every antagonist in 6 dogs. The time between testing of different kisspeptin antagonists was at least 5 days (range 5–15 days) to ensure that there were no peptide residues. Kisspeptin antagonist p234 per se was not tested in vivo because p271 is in fact p234 with a penetratin tag to enhance passage across the blood-brain barrier, as has been described for use with peripheral administration.
Kisspeptin antagonists (50 μg/kg/h) were administered continuously for three hours via a catheter in the cephalic vein. Two hours after the start of the infusion, a single bolus of cKP10 (0.5 μg/kg) was administered intravenously. Blood samples were collected from the jugular vein by venipuncture at -40 min and 0 min before the antagonist infusion, and then every 30 min for two hours. After the administration of cKP10, blood samples were collected at 10, 20, 40, and 60 min (i.e., 130, 140, 160, and 180 min after the start of the antagonist infusion).
As a control, KP stimulation tests (without the administration of a kisspeptin antagonist) were performed in six dogs. Blood samples were collected from the jugular vein by venipuncture at -40 min and 0 min before, and then at 10, 20, 40, and 60 min after administration of cKP10 (0.5 μg/kg). Plasma LH concentrations were measured in all blood samples.
Plasma LH concentrations were measured with a heterologous radioimmunoassay validated for the dog, as described previously. The intra- and interassay CVs for values above 0.5 μg/l were 2.3 and 10.5%, respectively, and the limit of quantitation was 0.3 μg/l.
In both groups of dogs (experimental and control), the basal plasma LH concentration was calculated for each dog as the mean of the values at –40 and 0 min before cKP10 or antagonist administration. All LH values that exceeded the mean of all basal samples plus 3 SD were attributed to pulsatile secretion and were treated as outliers and excluded from statistical analysis. Log transformation of plasma LH concentrations was used because data were not normally distributed. A linear mixed model was used to analyze differences in plasma LH concentrations before and after KP10, with or without a kisspeptin antagonist (group effects: p271, p354, p356, and controls), with Bonferroni correction. P<0.05 was considered significant.

Assay [2] relates to plasma LH concentration. In words: Other studies with p271 up to 600 μg/kg/h in castrated male dogs and anestrous bitches (unpublished). Format: in vivo, dog. The following applies: doses of up to 600 μg/kg/h, unpublished data. The procedure: These doses also had no effect on plasma LH concentration in the castrated male dogs or on the KP10-induced LH response in the female dogs (unpublished data). It is therefore unlikely that the lack of antagonistic effects is related to the dose of 50 μg/kg/h used in the present study.

The next assay relates to LH pulses. The following applies: intact and ovariectomized ewes; continuous intracerebroventricular; cited from earlier work.
The target in a further assay is T1, CHEM1-GPR54 cells (Homo sapiens, UniProt Q969F8).
T1 construct: host or cells: rat hematopoietic CHEM1 cells expressing endogenous Galpha15
In words: Preliminary calcium flux assay with adherent CHEM1-GPR54 cells (unpublished). It is filed as cell-based. The conditions noted are these: too few repeats for statistics.

In the next assay the target is human GPR54 (Homo sapiens, UniProt Q969F8). In words: Flow cytometric calcium flux assay, KP10-induced response after 15 min pre-incubation with antagonist. The conditions noted are these: all concentrations 10^-13 to 10^-5 M; 10^-8 M KP10; 15 min pre-incubation; P = 1.00. Format: cell-based. Set-up: host or cells: rat hematopoietic CHEM1 cells expressing endogenous Galpha15. How it is done: In vitro analyses of the effects of kisspeptin and kisspeptin antagonists, were performed using HT[…] cells (rat hematopoietic CHEM1 cells expressing endogenous Gα15 and, stably expressing the human GPR54 receptor (Millipore BV, the Netherlands), CHEM1-GPR54. Cells were counted and suspended in HBSS+++ at a concentration of 5*10^6 cells/ml. To load the cells with the fluorescent dye ester they were incubated in HBSS+++ adjusted to a concentration of 2 μM Fluo-3 AM (Molecular Probes, Life Technologies, the Netherlands) for 1h at 37°C under agitation in the dark. After incubation, the cells were washed by adding HBSS+++ to a volume of 10 ml followed by centrifugation (5 min, 150 x g) to remove excess of Fluo-3AM. […] Thereafter the tube was removed briefly and 25 μl peptide (see below) was added, after which aspiration and analysis continued. For statistical analyses fluorescent data recorded during the time interval 30-60 seconds after initiation of measurement were used. […] We then assessed whether these antagonists could compete with KP10 for its receptor. […] For this purpose 25 μl quantities of the antagonists were added to 200 μl of Fluo-3 AM labelled cells (10^6 cells/ml) and incubated for 15 min. […] Peptides p354 and p356 were tested three times with both human and canine KP10; while peptides p234 and p271 were tested three times with human KP10 and once with canine KP10. To analyze the effects of different concentrations of the KP antagonists on the calcium response due to KP10 addition, the differences in fluorescence before and after KP10 were calculated (the calcium response). The calcium response ratios were calculated as the calcium response of the CHEM1-GPR54 cells pre-incubated with different concentrations of KP antagonist and the control (the calcium response of the cells without KP antagonist). These calcium response ratios were log transformed and used for further analysis by univariate analysis of variance, with the Dunnett's test as post hoc test. The calcium response ratios were set as dependent variables and the different concentrations of the antagonists and the two types of KP10 were used as fixed factors. The residuals were normally distributed.
On the technique in general: A flow cytometer gives signals particle by particle.

Where [3] appears, read: adult male rats, 5 nmol ip every hour for three hours.
Setting [4] is: antagonist 50 μg/kg/h iv, cKP10 0.5 μg/kg iv.

The source of these data is paper PMC5484485, “In vitro and in vivo effects of kisspeptin antagonists p234, p271, p354, and p356 on GPR54 activation” (PLoS ONE, 2017).

Square brackets hold non-standard residues; d marks the D form. Ends that are not written are not given here.

Chain of human GPR54 (Q969F8 whole entry): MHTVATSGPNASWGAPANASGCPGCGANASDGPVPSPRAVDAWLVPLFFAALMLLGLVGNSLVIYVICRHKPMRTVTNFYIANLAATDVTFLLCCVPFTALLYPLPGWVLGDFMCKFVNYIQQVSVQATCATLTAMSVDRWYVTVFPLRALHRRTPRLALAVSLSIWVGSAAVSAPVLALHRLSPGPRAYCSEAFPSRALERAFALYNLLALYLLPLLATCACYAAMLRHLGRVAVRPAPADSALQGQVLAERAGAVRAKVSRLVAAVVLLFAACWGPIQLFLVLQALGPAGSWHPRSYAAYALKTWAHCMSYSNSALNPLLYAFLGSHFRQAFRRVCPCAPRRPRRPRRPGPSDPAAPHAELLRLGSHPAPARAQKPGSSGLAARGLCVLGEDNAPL
T1 sequence (Q969F8 whole entry): as above

As for “RRMKWKKY[dA]NWNGFG[dW]RF-NH2 [p271, p234 with a penetratin tag]”, in the assay with circulating LH / puberty (setting [3]), the “KP10-induced LH response, KP10 intracerebroventricular” value was “blunted” and the “KP10-induced LH response, KP10 intraperitoneal” value is on record as “absent”. Also, the “effect on post-castration rise in circulating LH” value in the assay on circulating LH / puberty (male rats, repeated peripheral administration) is given as “could prevent the post-castration rise in circulating LH”. In addition, in the assay with circulating LH / puberty (mice and rats, repeated peripheral administration), the “effect on KP10-induced rise in plasma LH” value is recorded as “blunted the KP10-induced rise in plasma LH concentration”. In addition, the “Median (and range) plasma LH, t = 30” value in the assay with plasma LH concentration [1] (30 min of antagonist infusion 50 μg/kg/h iv) is listed as 3.9 (2.2–5.4) μg/L. Besides, in the assay on plasma LH concentration [1] (60 min of antagonist infusion 50 μg/kg/h iv), the “Median (and range) plasma LH, t = 60” value was 5.2 (2.5–10.0) μg/L. The “Median (and range) plasma LH, t = 90” value in the assay with plasma LH concentration [1] (90 min of antagonist infusion 50 μg/kg/h iv) is listed as 4.5 (2.8–6.3) μg/L. In addition, the “Median (and range) plasma LH, t = 120” value in the assay with plasma LH concentration [1] (120 min of antagonist infusion 50 μg/kg/h iv, before cKP10) was 6.0 (3.2–7.5) μg/L. Moreover, in the assay with plasma LH concentration [1] (setting [4]), the “median maximum increment in plasma LH concentration after cKP10 during antagonist administration” value turned out to be 12.2 µg/L and the “range of maximum increment in plasma LH concentration after cKP10 during antagonist administration” value fell in the range of 4.7 to 18.2 µg/L. For the same substance, the “Median (and range) plasma LH, t = 130 / t = 10*” value with plasma LH concentration [1] (antagonist infusion 50 μg/kg/h iv, 10 min after cKP10 0.5 μg/kg iv) is 16.2 (9.3–24.1) μg/L. Moreover, the “Median (and range) plasma LH, t = 140 / t = 20*” value in the assay with plasma LH concentration [1] (antagonist infusion 50 μg/kg/h iv, 20 min after cKP10 0.5 μg/kg iv) is reported as 10.0 (5.7–12.6) μg/L. Besides, the “Median (and range) plasma LH, t = 160 / t = 40*” value in the assay with plasma LH concentration [1] (antagonist infusion 50 μg/kg/h iv, 40 min after cKP10 0.5 μg/kg iv) was 6.4 (4.8–8.8) μg/L. In addition, the “Median (and range) plasma LH, t = 180 / t = 60*” value in the assay with plasma LH concentration [1] (antagonist infusion 50 μg/kg/h iv, 60 min after cKP10 0.5 μg/kg iv) is reported as 4.8 (3.5–7.3) μg/L. The “Median (and range) plasma LH, Basal” value in the assay with plasma LH concentration [1] (before antagonist infusion (mean of -40 and 0 min per dog)) was 4.0 (2.9–5.9) μg/L. The “effect on basal plasma LH concentration” value in the assay on plasma LH concentration [1] (continuous iv 50 μg/kg/h, anestrous bitches) is listed as “did not cause significant alterations”. Besides, in the assay with plasma LH concentration [2] (anestrous bitches), the “effect on KP10-induced LH response in female dogs” value is “had no effect”. Also, the “effect on plasma LH concentration in castrated male dogs” value with plasma LH concentration [2] is “had no effect”. Moreover, in the assay with LH pulses, the “effect on LH pulses” value is recorded as “inhibited LH pulses”. On CHEM1-GPR54 cells, the “inhibition of KP10-induced calcium response, adherent cells” value is on record as “could not be inhibited”. In addition, the “difference in calcium response ratio between controls and antagonist” value at human GPR54 was “not significant”.
